Data: patent publication US11903931B2, “Salts of selective estrogen receptor degraders” (InventisBio Co., Ltd., priority 2018, dated 2024)
Counter-ions that a name gives are not always drawn.

Assays:
[1] = Solubility test in pH 1.2 or pH 6.8 buffer (saturated solutions, HPLC; remaining solids by XRPD); assay type: physicochemical; details: for XRPD analysis of remaining solids after solubility test: 24 hours, medium not stated; for XRPD patterns at 24 h: remaining solid
Description: For solubility test: About 20 mg of Compound FA, L-lysine salt and meglumine salt (Form I) were weighed into vials, added 3 mL of pH1.2 or pH 6.8 buffer to make saturated solutions. All suspensions were kept shaking with 200 rpm at room temperature for up to 24 hours. […] At 24 hours, remaining solids were collected and determined by XRPD.

[2] = Solid stability test at 40° C./75% RH for 8 days (HPLC, XRPD); assay type: physicochemical; details: for Physical and chemical stability / XRPD patterns after storage: 40° C./75% RH for 8 days; for Purity at 8 days / Purity at 0 day: HPLC; for Purity at 8 days: after 40° C./75% RH for 8 days; for Purity at 0 day: start of stability test
Description: HPLC ANALYSIS: a representative HPLC method is shown below, which can be used, for example, to analyze the purity, solubility, and stability of the salts herein.
For stability test: About 20 mg of Compound FA, L-lysine salt and meglumine salt (Form I) were weighed into vials, and put at the condition of 40° C./75% RH for 8 days. At 0 and 8 days, the solid sample was dissolved using acetonitrile/water (1/1) to make a solution with the concentration of 0.2 mg/mL. Sample solutions were analyzed by HPLC and solid samples were examined by XRPD.

[3] = Solid stability test of Form I at 25° C./92.5% RH for 10 days (XRPD); assay type: physicochemical
Description: Solid stability test of Form I at 92.5% RH for 10 days: About 20 mg of meglumine salt Form I was put into the condition of 25° C./92.5% RH for 10 days. At 10 days, the sample was analyzed by XRPD.

[4] = Meglumine salt form interconversion study (slurry in IPA or water, XRPD); assay type: physicochemical; details: for Final crystal form: Water
Description: Interconversion study: Interconversion studies were carried out by mixing the same amount of different form solids in IPA or water, respectively. Suspensions were kept stirring at room temperature and 60° C. for several days, during which suspensions were filtrated and analyzed by XRPD.

[5] = Physical treatment (grinding) of Form I; assay type: physicochemical; details: grinded for 2 min and 5 min
Description: Physical treatment of Form I: Form I of meglumine salt was grinded for 2 min and 5 min. After grinding, the crystallinity declined, but the crystal form was still Form I.

ER = target: T1, ER (Homo sapiens, UniProt P03372); details: intramuscular injection monthly; cited from earlier work
T1 sequence (P03372 1-595): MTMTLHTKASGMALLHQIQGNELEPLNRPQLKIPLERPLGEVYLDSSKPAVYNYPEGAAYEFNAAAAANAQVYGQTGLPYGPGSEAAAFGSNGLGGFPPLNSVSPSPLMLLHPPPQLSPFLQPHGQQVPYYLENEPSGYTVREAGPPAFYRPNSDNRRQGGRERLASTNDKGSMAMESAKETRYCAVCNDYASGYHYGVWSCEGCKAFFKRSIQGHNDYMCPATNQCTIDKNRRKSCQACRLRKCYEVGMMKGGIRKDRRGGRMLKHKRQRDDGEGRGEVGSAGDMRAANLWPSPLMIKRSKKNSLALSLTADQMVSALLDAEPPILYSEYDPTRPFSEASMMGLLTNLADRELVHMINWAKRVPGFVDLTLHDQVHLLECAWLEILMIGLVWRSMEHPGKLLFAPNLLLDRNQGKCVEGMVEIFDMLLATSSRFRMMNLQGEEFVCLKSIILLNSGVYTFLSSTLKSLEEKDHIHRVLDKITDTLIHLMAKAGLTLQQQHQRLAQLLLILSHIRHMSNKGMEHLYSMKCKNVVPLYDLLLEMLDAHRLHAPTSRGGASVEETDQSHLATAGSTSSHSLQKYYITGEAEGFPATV

[6] = Dynamic moisture sorption analysis (DVS); assay type: physicochemical
Description: Dynamic moisture sorption analysis (DVS): DVS was determined using IGAsorp (Hiden Isochema, UK). The sample was tested at a targeted RH (relative humidity) of 10 to 90% full cycle in step mode. The analysis was performed in 10% RH increments.

ER+ breast cancer cells = details: cited from earlier work
[7] = compared with fulvestrant, GDC-0810 and AZD9496; cited from earlier work

XRPD analysis of remaining solids after solubility test [1] | Stability in pH 1.2 buffer solution (HPLC) ([1]; pH 1.2 buffer) | XRPD patterns at 24 h ([1]; pH 1.2 buffer) | XRPD patterns at 24 h ([1]; pH 6.8 buffer) | Physical and chemical stability [2] | XRPD patterns after storage [2] | Purity at 8 days [2] [Area %] | Purity at 0 day [2] [Area %] | Crystal form after storage (XRPD) [3] | Final crystal form ([4]; 25° C.) | Final crystal form ([4]; 60° C.) | Relative stability of crystal forms ([4]; in water at 60° C. and IPA) | Crystal form after grinding [5] | Crystallinity after grinding [5] | XRPD pattern after DVS test [6] | Moisture adsorbed (DVS) ([6]; at 80% RH) | SMILES | ER degradation in clinical samples (ER) [%] | Growth of ER+ breast cancer cells (ER+ breast cancer cells) | Human hepatocyte clearance [7]
became lower | unstable | No change | Low crystallinity | physically and chemically stable | not changed | 99.66 | 99.68 | remained unchanged | Dihydrate | Form I | most stable crystal form | still Form I | declined |  |  | C[C@@H]1Cc2c([nH]c3ccccc23)[C@@H](c2c(Cl)cc(/C=C/C(=O)O)cc2Cl)N1CC(C)(C)F [Meglumine salt, Meglumine (E)-3-(3,5-dichloro-4-((1R,3R)-2-(2-fluoro-2-methylpropyl)-3-methyl-2,3,4,9-tetrahydro-1H-pyrido[3,4-b]indol-1-yl)phenyl)acrylate] |  |  | 
 |  |  |  |  |  |  |  |  |  |  |  |  |  |  |  | C[C@]12CC[C@@H]3c4ccc(O)cc4C[C@@H](CCCCCCCCC[S+]([O-])CCCC(F)(F)C(F)(F)F)[C@H]3[C@@H]1CC[C@@H]2O (stereo partly drawn) [fulvestrant] | ~50 |  | 
became lower | unstable | Low crystallinity | Low crystallinity | physically and chemically stable | not changed | 96.31 | 98.02 |  |  |  |  |  |  | didn't change | about 1.7% | C[C@@H]1Cc2c([nH]c3ccccc23)[C@@H](c2c(Cl)cc(/C=C/C(=O)O)cc2Cl)N1CC(C)(C)F [Compound FA, (E)-3-(3,5-dichloro-4-((1R,3R)-2-(2-fluoro-2-methylpropyl)-3-methyl-2,3,4,9-tetrahydro-1H-pyrido[3,4-b]indol-1-yl)phenyl)acrylic acid] |  | inhibited the growth | better human hepatocyte clearance
